Read-outs that look alike come from different tables or passages of the source.
Experiments:
Cofilin:LIMK2 = test: Protein-fragment complementation assay Cofilin:LIMK2; format: cell-based, human; details: hit in Cofilin/LIMK2 assay; drugs screened at 10 micromolar
From the text: (§1) To construct dynamic assays for protein-protein complexes, we used a protein-fragment complementation assay strategy (PCAs) in intact human cells. (A variety of other suitable assays, and reporter options, are described in detail below.) The principle of PCA is that complementary polypeptide fragments (F[1] and F[2]) of a reporter protein or enzyme will fold into an active form only if fused to two proteins which interact and bring the complementary fragments of the reporter protein into proximity. Reconstitution of the fragments of the reporter protein generates a fluorescent signal that can be quantified in intact cells, and the amount of the signal is proportional to the amount of the protein-protein complex used in constructing the assay. Given a suitable reporter type, the subcellular location of the complex can also be measured.
(§2) Reporter fragments for PCA were generated by oligonucleotide synthesis (Blue Heron Biotechnology, Bothell, Wash.), starting with the sequence of yellow fluorescent protein (YFP). First, oligonucleotides coding for polypeptide fragments YFP[1]and YFP[2] […] Next, PCR mutagenesis was used to generate the mutant fragments IFP[1] and IFP[2]. The IFP[1] fragment corresponds to YFP[1]-(F46L, F64L, M153T) and the IFP[2] fragment corresponds to YFP[2]-(V163A, S175G). […]

human tumor cell lines = test: MTT proliferation assay and phase contrast images, cell line not given (FIGS. 5-10); format: cell-based; details: treated cells vs. DMSO control, cell line not named
Procedure: (§3) We used these methods to mine the known pharmacopeia for drugs with previously-unsuspected activity against cancer-related pathways. […] Hits from our cell-based screens were tested for antiproliferative activity in up to 5 different human tumor cell lines, as follows. First, drugs with significant activity in the cellular screen(s) were tested for their ability to block proliferation of a human tumor cell line (PC-3) at an initial concentration of 10 micromolar. For drugs with antiproliferative activity in PC-3 cells, dose-response curves to determine the IC50 for antiproliferative activity and additional tumor cell lines were tested to determine the breadth of activity. Methods for assessing the antiproliferative activity of the cell-based drug ‘hits’ are described below.
Cells were maintained in various media as follows: A549, LoVo and PC-3 (Ham's F12K medium with 2 mM L-glutamine and 1.5 g/L sodium bicarbonate), MIA PaCa-2 (Dulbecco's modified Eagle's medium with 4 mM L-glutamine and 4.5 g/L glucose), U87-MG (MEM+Earle's BSS). Medium for each cell line was supplemented with 10% FBS and […] Penecillin/Streptomycin. All cells were grown in incubators set at 37° C., 5% CO2. Thiazolyl Blue Tetrazolium Bromide (MTT) based proliferation assays were performed to assess the anti-proliferative activities of the compounds on these cells. Cells were seeded in 96 well plates at a density of 750 cells/well 24 hours prior to compound treatment. The cells were incubated with varying concentrations of compounds for 120 hours. Compound concentrations range from 0.03 to 100 microM (half log increments) except for alpha-Tomatine (0.001-100 microM, half log increments), Neriifolin (0.0002-100 microM) and Peruvoside (0.01-100 microM). Drug treatment was performed in 5 replicate wells. Background absorbance was established by wells containing medium but no cells. Vehicle (DMSO) only was used as control. MTT (Sigma-Aldrich, St. Louis, Mo.) was added to each well at a final concentration of 0.5 mg/ml. Following a 2 hour incubation at 37° C., medium in the wells was replaced with 0.15 ml DMSO. The plates were agitated for 15 min using a microtiter plate shaker. […] Mean absorbance values were calculated from 5 replicate wells of each drug treatment following subtraction of background absorbance from blank samples and plotted as a percentage of control.

[1] = system: glioblastoma (U-87 MG) cells; test: MTT proliferation assay, glioblastoma; format: cell-based; details: Homo sapiens, Tumor Cell Glioblastoma (U-87 MG), 120 hours, read-out: Anti-proliferative IC-50
Procedure: (§4) Cells were maintained in various media as follows: A549, LoVo and PC-3 (Ham's F12K medium with 2 mM L-glutamine and 1.5 g/L sodium bicarbonate), MIA PaCa-2 (Dulbecco's modified Eagle's medium with 4 mM L-glutamine and 4.5 g/L glucose), U87-MG (MEM+Earle's BSS). Medium for each cell line was supplemented with 10% FBS and […] Penecillin/Streptomycin. All cells were grown in incubators set at 37° C., 5% CO2. Thiazolyl Blue Tetrazolium Bromide (MTT) based proliferation assays were performed to assess the anti-proliferative activities of the compounds on these cells. Cells were seeded in 96 well plates at a density of 750 cells/well 24 hours prior to compound treatment. The cells were incubated with varying concentrations of compounds for 120 hours. […] Drug treatment was performed in 5 replicate wells. Background absorbance was established by wells containing medium but no cells. Vehicle (DMSO) only was used as control. MTT (Sigma-Aldrich, St. Louis, Mo.) was added to each well at a final concentration of 0.5 mg/ml. Following a 2 hour incubation at 37° C., medium in the wells was replaced with 0.15 ml DMSO. The plates were agitated for 15 min using a microtiter plate shaker.

PAK4:Cofilin = test: Protein-fragment complementation assay PAK4:Cofilin; format: cell-based, human; details: hit in PAK4/CFL assay; drugs screened at 10 micromolar
From the text: as §1
(§5) Reporter fragments for PCA were generated by oligonucleotide synthesis (Blue Heron Biotechnology, Bothell, Wash.), starting with the sequence of yellow fluorescent protein (YFP). First, oligonucleotides coding for polypeptide fragments YFP[1]and YFP[2] […] Next, PCR mutagenesis was used to generate the mutant fragments IFP[1] and IFP[2]. The IFP[1] fragment corresponds to YFP[1]-(F46L, F64L, M153T) and the IFP[2] fragment corresponds to YFP[2]-(V163A, S175G). […] The YFP[1], YFP[2], IFP[1] and IFP[2] fragments were amplified by PCR to incorporate restriction sites and a linker sequence, described below, in configurations that would allow fusion of a gene of interest to either the 5′- or 3′-end of each reporter fragment. The reporter-linker fragment cassettes were subcloned into a mammalian expression vector (pcDNA3.1Z, Invitrogen) that had been modified to incorporate the replication origin (oriP) of the Epstein Barr virus (EBV). […] Additionally, these vectors still retain the SV40 origin, allowing for episomal expression in cell lines expressing the SV40 large T antigen (e.g. HEK293T, Jurkat or COS).
(§6) PCA fusion constructs were prepared for a proteins known to participate in cellular pathways that have been described in the scientific literature as being linked to cancer. The selection of protein-protein complexes used, and the rationale for their use, is provided in Table 1 and the gene identifiers for the cDNAs used in assay construction are provided in Table 2. The full coding sequence for each gene of interest was amplified by PCR from a sequence-verified full-length cDNA. Resulting PCR products were column purified (Centricon), digested with appropriate restriction enzymes to allow directional cloning, and fused in-frame to either the 5′ or 3′-end of YFP[1], YFP[2], IFP[1] or IFP[2] through a linker encoding a flexible 10 amino acid peptide (Gly.Gly.Gly.Gly.Ser)2. […] Recombinants in the host strains DH5-alpha (Invitrogen, Carlsbad, Calif.) or XL1 Blue MR (Stratagene, La Jolla, Calif.) were screened by colony PCR, and clones containing inserts of the correct size were subjected to end sequencing to confirm the presence of the gene of interest and in-frame fusion to the appropriate reporter fragment. A subset of fusion constructs were selected for full-insert sequencing by primer walking. DNAs were isolated using Qiagen MaxiPrep kits (Qiagen, Chatsworth, Calif.). PCR was used to assess the integrity of each fusion construct, by combining the appropriate gene-specific primer with a reporter-specific primer to confirm that the correct gene-fusion was present and of the correct size with no internal deletions.
(§7) HEK293 cells were maintained in MEM alpha medium (Invitrogen) supplemented with 10% FBS (Gemini Bio-Products), 1% penicillin, and 1% streptomycin, and grown in a 37° C. incubator equilibrated to 5% CO2. […] Up to 100 ng of the complementary YFP or IFP-fragment fusion vectors were co-transfected using Fugene 6 (Roche) according to the manufacturer's protocol.

[2] = system: colon adenocarcinoma (LoVo) cells; test: MTT proliferation assay, colon; format: cell-based, Human; details: Tumor Cell Colon (LoVo), 120 hours, read-out: Anti-proliferative IC-50
Procedure: as §4

[3] = system: prostate adenocarcinoma (PC-3) cells; test: MTT proliferation assay, prostate; format: cell-based, Human; details: Tumor Cell Prostate (PC-3), MTT, 120 hours, read-out: Anti-proliferative IC-50
Procedure: as §3, §4

[4] = system: pancreatic carcinoma (MIA PaCa-2) cells; test: MTT proliferation assay, pancreatic; format: cell-based, Human; details: Tumor Cell Pancreatic (MIA PaCa-2), 120 hours, read-out: Anti-proliferative IC-50
Procedure: as §4

[5] = system: non-small cell lung carcinoma (A549) cells; test: MTT proliferation assay, NSCLC; format: cell-based, Human; details: Tumor Cell NSCLC (A549), 120 hours, read-out: Anti-proliferative IC-50
Procedure: as §4

CDC42:PAK4 complexes = test: Protein-fragment complementation assay CDC42:PAK4; format: cell-based, human; details: hit in CDC42/PAK4 assay; drugs screened at 10 micromolar
From the text: as §1, §5, §6, §7

Wee1:Cdc2 = test: Protein-fragment complementation assay Wee1:Cdc2; format: cell-based, human; details: hit in Wee1/Cdc2 assay; drugs screened at 10 micromolar
From the text: as §1, §2

CDC25C:Cdc2 = test: Protein-fragment complementation assay CDC25C:Cdc2; format: cell-based, human; details: hit in CDC2/CDC25C assay; drugs screened at 10 micromolar
From the text: as §1, §2

BAD:BID = test: Protein-fragment complementation assay BAD:BID; format: cell-based, human; details: hit in BAD/BID assay; drugs screened at 10 micromolar
From the text: as §1, §2

MAX:MYC = test: Protein-fragment complementation assay MAX:MYC; format: cell-based, human; details: hit in MYC/MAX assay; drugs screened at 10 micromolar
From the text: as §1, §2

EGFR:Grb2 = test: Cell-based assay EGFR:Grb2; design: species or system human; details: hit in EGFR/Grb2 assay; drugs screened at 10 micromolar
From the text: as §1, §2

HSP90:Eef2k = test: Protein-fragment complementation assay Hsp90:Eef2k; format: cell-based, human; details: hit in HSP90/Eef2k assay; drugs screened at 10 micromolar
From the text: as §1
as §5, with “COS). […]” for “COS).”

Chk1:CDC25C = test: Protein-fragment complementation assay Chk1:CDC25C; format: cell-based, human; details: hit in CDC25C/Chk1 assay (with or without CPT not stated); drugs screened at 10 micromolar
From the text: as §1, §2

| SMILES | IC50 [1] | Assay activity (PAK4:Cofilin) | IC50 ([2]; Homo sapiens) | IC50 ([3]; Homo sapiens) | IC50 ([4]; Homo sapiens) | IC50 ([5]; Homo sapiens) | Assay activity (CDC42:PAK4 complexes) | other results |
| --- | --- | --- | --- | --- | --- | --- | --- | --- |
| CC(C)c1c(C(=O)Nc2ccccc2)c(-c2ccccc2)c(-c2ccc(F)cc2)n1CC[C@@H](O)C[C@@H](O)CC(=O)O [Atorvastatin] | 4600 nM | CFL1/PAK4 |  |  |  |  |  | Assay activity (Cofilin:LIMK2): CFL1/LIMK2,; cell count (phase contrast images) (human tumor cell lines): decreased the cell count |
| O=C(CCCN1CC=C(n2c(=O)[nH]c3ccccc32)CC1)c1ccc(F)cc1 [Droperidol] | 24600 nM | PAK4/CFL | 25800 nM | 7680 nM | 8800 nM | 24300 nM |  |  |
| Fc1ccc(C(c2ccc(F)cc2)N2CCN(C/C=C/c3ccccc3)CC2)cc1 [Flunarizine] |  | PAK4/CFL, |  |  |  |  | CDC42/PAK4 |  |
| CO[C@H]1[C@H](O)[C@H](O[C@H]2CC[C@@]3(C)[C@H](CC[C@@H]4[C@@H]3CC[C@]3(C)[C@@H](C5=CC(=O)OC5)CC[C@]43O)C2)O[C@@H](C)[C@@H]1O [Neri$$olin, Neriifolin] |  | PAK4/CFL, |  |  |  |  | CDC42/PAK4 | IC50 [2]: 18 nM; IC50 [3]: 11 nM; IC50 [4]: 4 nM; IC50 [5]: 5 nM |
| CO[C@H]1[C@H](O)[C@H](O[C@H]2CC[C@@]3(C=O)[C@H](CC[C@@H]4[C@@H]3CC[C@]3(C)[C@@H](C5=CC(=O)OC5)CC[C@]43O)C2)O[C@@H](C)[C@@H]1O [Peruvoside] | 2 nM |  | 9 nM | 5 nM | 3 nM | 4 nM |  | Assay activity (Wee1:Cdc2): Wee1/Cdc2 |
| CN[C@H]1CC[C@@H](c2ccc(Cl)c(Cl)c2)c2ccccc21 [Sertraline] |  |  |  |  |  |  |  | Assay activity (CDC25C:Cdc2): CDC2/CDC25C,; Assay activity (BAD:BID): BAD/BID,; Assay activity (MAX:MYC): MAX/MYC; cell count (phase contrast images) (human tumor cell lines): reduced the cell count; Assay activity (EGFR:Grb2): EGFR/Grb2,; Assay activity (HSP90:Eef2k): Eef2K/hsp90, |
| CCCCCCCCNC(C)C(O)c1ccc(SC(C)C)cc1 (centres unmarked) [Suloctidil] | 1120 nM | PAK4/CFL, | 1130 nM | 1850 nM | 1930 nM | 2230 nM | CDC42/PAK4 |  |
| CC1(C)CCC2=C(O1)c1ccccc1C(=O)C2=O [beta-Lapachone] | 860 nM |  | 1400 nM | 630 nM | 377 nM | 230 nM |  | Assay activity (EGFR:Grb2): EGFR/Grb2,; Assay activity (Chk1:CDC25C): CDC25C/Chk1 |
